From patent US11147792B2, “Inhibitors of microbially induced amyloid” (Axial Therapeutics, Inc, priority 2017, dated 2021)
Read-outs that look alike come from different tables or passages of the source.

Assays:
Type in all cases: biochemical
[1] = molecular target: T1, α-synuclein seeded by E. coli CsgA (Homo sapiens, UniProt P37840); assay: In vitro Thioflavin T assay of CsgA-seeded α-synuclein aggregation
T1 construct: made in house; host or cells: E. coli NEB 3016 slyD::kan (CsgA, pET11d); E. coli (α-synuclein)
Description: In Vitro Thioflavin T Assay to Determine the Effects of Compounds on CsgA-Seeded α-Synuclein Aggregation.
To induce over-expression of CsgA, 0.5 mM IPTG was added to cultures with an optical density at 600 nm (OD600) of 0.8-1, and induced cells were cultured at 37° C. for 1 hour prior to harvest via centrifugation. […] Buffers with imidazole were freshly prepared prior to the protein purification. Purified CsgA was passed through a 30 kDa molecular weight cut-off filter and through a desalting column. All steps of the CsgA purification in the absence of guanidine hydrochloride were conducted in rapid succession with as little delay as possible. […] The ammonium sulfate pellet was washed with an equal volume of 100 mM ammonium acetate in ethanol, pelleted via centrifugation, washed twice with ethanol, dried overnight, resuspended in 10 mM Tris pH 7.4, and passed through a 50 kDa cut-off column. The assay was conducted in 96-well black microplates with a single glass 2 mm bead per well, 40 μM ThioflavinT, 1% DMSO, 2 μM CsgA, 50 μM α-synuclein, 100 mM sodium chloride, 9.3 mM potassium phosphate pH 7.3, and compounds at 50 μM. […] The effect of compounds on CsgA-seeded α-synuclein aggregation in the assay was determined with data from 40 hours, following the plateau of the fluorescent signal in the untreated (no compound) control wells containing CsgA and α-synuclein. Fluorescence values for each compound with CsgA and α-synuclein were first adjusted by subtracting the average fluorescence of the compound in the absence of CsgA and α-synuclein.

[2] = molecular target: T2, E. coli CsgA (Escherichia coli, UniProt P28307); assay: In vitro ThioflavinT assay of CsgA aggregation; details: for Effect on CsgA aggregation (in words) / Inhibition of Aggregation CsgA (compound activity range): compounds at 20 μM; for inhibition at 20 µM / Inhibition of Aggregation CsgA (compound activity range): CsgA at 20 μM, ThT fluorescence at 18 hours; for Inhibition of Aggregation CsgA (compound activity range): 20 µM
T2 construct: made in house; host or cells: E. coli NEB 3016 slyD::kan, pET11d
Description: In Vitro ThioflavinT Assay to Determine Effects of Compounds on CsgA Aggregation.
To assess the effects of compounds on aggregation of E. coli CsgA, a cell-free assay was performed using purified CsgA and Thioflavin T. In the assay, histidine-tagged CsgA was over-expressed in E. coli NEB 3016 slyD::kan cells harboring a pET11d vector containing csgA with the sequence for 6 histidine residues added to the C-terminus and without the Sec signal (amino acid 1-22) sequence. To induce over-expression of CsgA, 0.5 mM isopropyl β-D-1-thiogalactopyranoside (“IPTG”) was added to cultures with an optical density at 600 nm (OD600) of 0.8-1, and induced cells were cultured at 37° C. for 1 hour prior to harvest via centrifugation. Cells were lysed under denaturing conditions with 8 M guanidine hydrochloride in 50 mM potassium phosphate buffer pH 7.3, and CsgA was purified via immobilized-metal affinity chromatography by batch purification with Nickel-NTA agarose and a combination of low pressure and gravity flow through a disposable polypropylene column, including washes under low pressure applied manually via application of a syringe plunger to the column with 50 mM potassium phosphate buffer pH 7.3 followed by 12.5 mM imidazole in 50 mM potassium phosphate buffer pH 7.3, and elution by gravity flow with 125 mM imidazole in 50 mM potassium phosphate buffer pH 7.3. Buffers with imidazole were freshly prepared prior to the protein purification. Purified CsgA was passed through a 30 kDa molecular weight cut-off filter and passed through a desalting column. All steps of the CsgA purification in the absence of guanidine hydrochloride were conducted in rapid succession with as little delay as possible. The assay was conducted in 96-well black microplates with 40 μM ThioflavinT, 1% DMSO, CsgA at 20 μM, and compounds at 20 μM. Plates were incubated at 25° C. in a Tecan Nano F200 plate reader with excitation at 438 nm using a 439 nm filter with a bandwidth of 8 nm, and emission at 495 nm with a 490 nm filter with a bandwidth of 10 nm. During the assay, plates were shaken initially for 5 seconds and subsequently for 3 seconds prior to fluorescent readings. Readings were performed every 20 minutes for up to 24 hours. The effect of compounds on CsgA aggregation in the assay was determined with data from 18 hours, following the plateau of the fluorescent signal in the untreated (no compound) control wells containing CsgA. Fluorescence values for each compound with CsgA were first adjusted by subtracting the average fluorescence of the compound in the absence of CsgA. These adjusted values were normalized by dividing them by the average fluorescence in the no-compound (i.e., untreated) control wells containing CsgA […], and the average normalized fluorescence with the compound was expressed as a percentage of the average fluorescence observed in untreated controls.

[3] = molecular target: T3, human α-synuclein (Homo sapiens, UniProt P37840); assay: In vitro Thioflavin T assay of α-synuclein aggregation; details: for inhibition at 1 µM: compounds at 1 μM
T3 construct: made in house; host or cells: E. coli
Description: In Vitro Thioflavin T Assay to Determine the Effects of Compounds on α-Synuclein Aggregation.
The ammonium sulfate pellet was washed with an equal volume of 100 mM ammonium acetate in ethanol, pelleted via centrifugation, washed twice with ethanol, dried overnight, resuspended in 10 mM Tris pH 7.4, and passed through a 50 kDa cut-off column. The assay was conducted in 96-well black microplates with a single 2 mm bead in each well, 40 μM ThioflavinT, 1% DMSO, 50 μM α-synuclein, 100 mM sodium chloride, 9.3 mM potassium phosphate pH 7.3, 4.6 mM Tris pH 7.4 (added as the solvent for α-synuclein or independently for controls lacking α-synuclein), and compounds at 1 μM or 50 μM. […] Readings were performed hourly for up to 73 hours. The effect of compounds on α-synuclein aggregation in the assay was determined with data from 40 hours, following the plateau of the fluorescent signal in the untreated (no compound) control wells containing α-synuclein. Fluorescence values for each compound with α-synuclein were first adjusted by subtracting the average fluorescence of the compound in the absence of α-synuclein.

[4] = compounds at 50 μM, 2 μM CsgA, 50 μM α-synuclein, ThT fluorescence at 40 hours, read-out: Inhibition of Aggregation CsgA-seeded αSyn
[5] = compounds at 50 μM, 2 μM CsgA, 50 μM α-synuclein, ThT fluorescence at 40 hours, read-out: Inhibition of Aggregation CsgA-seeded αSyn (compound activity range)
[6] = read-out: Inhibition of Aggregation CsgA (compound activity range), compounds at 20 μM
[7] = read-out: Inhibition of Aggregation CsgA, compounds at 20 μM
[8] = read-out: Inhibition of Aggregation αSyn
[9] = read-out: Inhibition of Aggregation αSyn (compound activity range)
[10] = read-out: Inhibition of Aggregation CsgA-seeded αSyn
[11] = read-out: Inhibition of Aggregation CsgA-seeded αSyn (compound activity range)
[12] = compounds at 50 μM, 50 μM α-synuclein, ThT fluorescence at 40 hours, read-out: Inhibition of Aggregation αSyn
[13] = compounds at 50 μM, 50 μM α-synuclein, ThT fluorescence at 40 hours, read-out: Inhibition of Aggregation αSyn (compound activity range)
[14] = 50 μM α-synuclein, ThT fluorescence at 40 hours, read-out: Inhibition of Aggregation αSyn
[15] = 50 μM α-synuclein, ThT fluorescence at 40 hours, read-out: Inhibition of Aggregation αSyn (compound activity range)

T2 sequence (P28307 23-151): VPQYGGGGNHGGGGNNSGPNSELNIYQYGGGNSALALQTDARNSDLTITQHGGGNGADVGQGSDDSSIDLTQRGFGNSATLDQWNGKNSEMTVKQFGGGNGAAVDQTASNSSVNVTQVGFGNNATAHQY

Structure (SMILES) | inhibition at 50 µM [1, 4] [%] | Effect on CsgA aggregation (in words) [2] | inhibition at 20 µM [2, 6] [%] | inhibition at 20 µM [2, 7] [%] | inhibition at 50 µM [3, 12] [%] | inhibition at 50 µM [3, 13] [%] | inhibition at 1 µM [3, 14] [%] | inhibition at 1 µM [3, 15] [%] | other results
C=CCc1ccc(OC)c(OC)c1 [4-allyl-1,2-dimethoxy-benzene, 4-allyl-1,2-dimethoxybenzene] | 36 | without notable inhibition | < -10 | -18 | – | – | – | – | Effect on CsgA-seeded α-synuclein aggregation (in words) ([1]; compounds at 50 μM): demonstrated inhibition; inhibition at 50 µM [1, 5]: 30 to 60%; Effect on α-synuclein aggregation (in words) ([3]; compounds at 50 μM): without notable inhibition; inhibition at 50 µM [3, 8]: 5%; inhibition at 50 µM [3, 9]: -10 to 10%
CCc1ccc(O)c(OC)c1 [4-ethyl guaiacol, 4-ethyl-2-methoxyphenol] | – | relatively strong enhancement of CsgA aggregation | – | -82 | -2 | -10 to 10 | – | – | inhibition at 50 µM [1, 10]: -10%; inhibition at 50 µM [1, 11]: 30 to 60%
Brc1cccc(-c2cc(-c3ccc4c(c3)OCO4)n[nH]2)c1 [Anle 138b, reference compound] | – | relatively little to no effect | -10 to 10 | 9 | – | – | – | – | –
CC(Cc1ccc(O)c(O)c1)C(C)Cc1ccc(O)c(O)c1 (centres unmarked) [NDGA, 4,4′-(2,3-dimethylbutane-1,4-diyl)dibenzene-1,2-diol] | 39 | – | 10 to 30 | 23 | 54 | 30 to 60 | – | – | –
O=c1cc(-c2ccc(O)cc2)oc2cc(O)cc(O)c12 [apigenin, 5,7-dihydroxy-2-(4-hydroxyphenyl)-4H-1-benzopyran-4-one] | – | – | – | – | – | – | 56 | 30 to 60 | –
Cc1ccc(C(C)C)cc1O [carvacrol, 2-methyl-5-(propan-2-yl)phenol] | – | – | – | -20 | – | – | – | – | inhibition at 50 µM [1, 10]: -2%; Inhibition of Aggregation CsgA (compound activity range) [2]: − ((−) is between −10% to 10% inhibition); inhibition at 50 µM [3, 8]: 2%; inhibition at 50 µM [3, 9]: -10 to 10%
COc1cc(/C=C/C(=O)/C=C(O)/C=C/c2ccc(O)c(OC)c2)ccc1O [curcumin, (1E,6E)-1,7-Bis(4-hydroxy-3-methoxyphenyl)hepta-1,6-diene-3,5-dione] | 86 | – | – | – | – | – | – | – | inhibition at 50 µM [3, 8]: 89%; inhibition at 50 µM [3, 9]: > 60%
C=CCc1ccc(O)c(OC)c1 [eugenol, 2-methoxy-4-(prop-2-en-1-yl)phenol] | – | without notable inhibition | – | -10 | – | – | – | – | Effect on CsgA-seeded α-synuclein aggregation (in words) ([1]; compounds at 50 μM): demonstrated inhibition; inhibition at 50 µM [1, 10]: 42%; inhibition at 50 µM [1, 11]: 30 to 60%; Effect on α-synuclein aggregation (in words) ([3]; compounds at 50 μM): without notable inhibition; inhibition at 50 µM [3, 8]: -1%; inhibition at 50 µM [3, 9]: -10 to 10%
O=C(O)c1cc(O)c(O)c(O)c1 [gallic acid, 3,4,5-trihydroxybenzoic acid] | 63 | – | > 60 | 82 | 99 | > 60 | – | – | Inhibition of Aggregation CsgA (compound activity range) [2]: (++) to (+++)
O=c1c(-c2ccc(O)cc2)coc2cc(O)cc(O)c12 [genistein, 5,7-dihydroxy-3-(4-hydroxyphenyl)chromen-4-one] | – | – | – | – | – | – | 40 | 30 to 60 | –
COc1ccccc1O [guaiacol, 2-methoxyphenol] | 40 | without notable inhibition | -10 to 10 | -5 | -2 | -10 to 10 | – | – | Effect on CsgA-seeded α-synuclein aggregation (in words) ([1]; compounds at 50 μM): demonstrated inhibition; inhibition at 50 µM [1, 5]: 30 to 60%; Effect on α-synuclein aggregation (in words) ([3]; compounds at 50 μM): without notable inhibition
C/C=C/c1ccc(O)c(OC)c1 [isoeugenol, 2-methoxy-4-(prop-1-en-1-yl)phenol] | 35 | without notable inhibition | -10 to 10 | -4 | 9 | -10 to 10 | – | – | Effect on CsgA-seeded α-synuclein aggregation (in words) ([1]; compounds at 50 μM): demonstrated inhibition; inhibition at 50 µM [1, 5]: 30 to 60%; Effect on α-synuclein aggregation (in words) ([3]; compounds at 50 μM): without notable inhibition
O=c1c(O)c(-c2ccc(O)c(O)c2)oc2cc(O)cc(O)c12 [quercetin, 2-(3,4-dihydroxyphenyl)-3,5,7-trihydroxychromen-4-one] | – | – | 30 to 60 | 33 | – | – | 99 | > 60 | –
Oc1ccc(/C=C/c2cc(O)cc(O)c2)cc1 [resveratrol, (E)-5-(4-hydroxystyryl)benzene-1,3-diol] | – | – | > 60 | 62 | – | – | 86 | > 60 | Inhibition of Aggregation CsgA (compound activity range) [2]: (+++) to (++)
O=C(/C=C/c1ccc(O)c(O)c1)O[C@H](Cc1ccc(O)c(O)c1)C(=O)O [rosmarinic acid] | – | – | 30 to 60 | 48 | – | – | 99 | > 60 | –
